Results as given in US20120028244A1, “Anti-Viral Azide Containing Compounds” (LIFE TECHNOLOGIES CORPORATION, priority 2010, published 2012).

Legend:
[1] = system: Nuclear-GFP BacMam 2.0 virus (baculovirus); experiment: Infectivity of PTM analog-labeled Nuclear-GFP BacMam virus in U2-OS cells; format: cell-based; conditions: BacMam virus labeled in Sf9 insect cells with 50 uM analog; U2-OS cells incubated overnight with labeled virus; FIG. 5
From the text: Inhibition of insect cell baculovirus infectivity with azido fatty acid analogs: The BacMam system uses a modified insect cell virus (baculovirus) as a vehicle to efficiently deliver and express genes in mammalian cells. A Nuclear-GFP BacMam 2.0 expression system (Invitrogen, C10602) was used as a model to determine if PTM analog labeling of the virus would affect mammalian cell infectivity. Viruses were labeled with various PTM analogs and used to infect mammalian cells. Infectivity was determined by the expression of nuclear-GFP, as viral entry into the cell is required for expression of GFP protein. […]
Characterization of BacMam Virus Production: To verify, quantitate, and normalize the amount of enriched viruses obtained from insect cell supernatants, samples of each virus were lysed in SDS sample preparation buffer (SPB), sonicated with a probe tip sonicator, and heated at 90C to completely dissolve the viral proteins. Viral protein concentrations of the lysates were then determined. […]
Mammalian Cell Infection Protocol: To determine if the PTM analog-labeled viruses retain the ability to infect mammalian cells, 50,000 U2-OS cells (human osteosarcoma cell line) were plated onto a 6 well-chamber glass bottom plate. […] The following day cells were imaged on AMG EVOS fluorescence microscope at 10× or 20× magnification using both white light and GFP filters (FIG. 5). […]

HIV = experiment: Luciferase reporter assay of infectivity of azide-labeled HIV on TZM/BI reporter cells; format: cell-based, human immunodeficiency virus; conditions: HIVNL4-3 produced in CEMx174 cells spiked with the compound; labeled virus incubated 12 hours on TZM/BI reporter cells; single cycle replication system; FIGS. 3 and 4
Description: CEMx174 cells were transfected with HIVNL4-3 in a T-150 flask and the virus production was monitored by reverse transcriptase activity until peak virus production occurred (usually 7 to 9 days post transfection). Prior to transfection, the CEMx174 cells were spiked with the following azide-modified biomolecules: 15-azidopentadecanoic acid (50-100 μM), 12-azidododecanoic acid (50-100 μM), tetraacetylated N-azidoacetylgalactosamine (20-40 μM), and tetraacetylated N-azidoacetyl-D-mannosamine (20-40 μM).
Labeled virus was also obtained from the transfected cells. More specifically, virus-containing supernatants were collected and virus was purified through 20% sucrose as previously described (Graham, D. R. et al., Proteomics 2008, 8:4919-30). The purified virus was then mixed with the CLICK-IT® detection reagent, tetramethylrhodamine (TAMRA) alkyne and the CLICK-IT® Protein Reaction Buffer Kit (Invitrogen, Carlsbad, Calif.). Virus samples were run on a one-dimensional gel to reveal azide-labeled viral proteins (FIG. 2). […]
To examine the effect of the azide-modified biomolecules on the innate biology of the virus, the azide-labeled virus from the transfected cells was isolated and tested in cell infection studies. […] Viral infectivity was determined by measuring cellular luciferase activities with two different luciferase reagents.

Compound | nuclear-GFP expression in U2-OS cells (viral entry) [1] | impact on the infectivity of the virus (cellular luciferase activity) (HIV)
[N-]=[N+]=NCCCCCCCCCCCC(=O)O [12-azidododecanoic acid] | no nuclear-GFP expression | profound impact on the infectivity of the virus
[N-]=[N+]=NCCCCCCCCCCCCCCC(=O)O [15-azidopentadecanoic acid] | no nuclear-GFP expression | 
